What was measured:
Assay type in all cases: functional
[1] = system: SR; experiment: Growth inhibition of human SR cells assessed as cell growth at 0.03 uM incubated for 48 hrs by sulforhodamine B assay relative to control; details: read-out: Activity
[2] = system: SK-MEL-2; experiment: Growth inhibition of human SK-MEL-2 cells assessed as cell growth at 30 uM incubated for 48 hrs by sulforhodamine B assay relative to control; details: SK-MEL-2, 48 h, read-out: Activity
[3] = system: KM12; experiment: Growth inhibition of human KM12 cells assessed as cell growth at 3 uM incubated for 48 hrs by sulforhodamine B assay relative to control; details: KM12, 48 h, read-out: Activity
[4] = system: Malme-3M; experiment: Growth inhibition of human MALME-3M cells assessed as cell growth at 0.003 uM incubated for 48 hrs by sulforhodamine B assay relative to control; details: read-out: Activity
[5] = system: UACC-257; experiment: Growth inhibition of human UACC257 cells assessed as cell growth at 30 uM incubated for 48 hrs by sulforhodamine B assay relative to control; details: UACC-257, 48 h, read-out: Activity
[6] = system: Malme-3M; experiment: Growth inhibition of human MALME-3M cells assessed as cell growth at 3 uM incubated for 48 hrs by sulforhodamine B assay relative to control; details: read-out: Activity
[7] = system: HCC 2998; experiment: Growth inhibition of human HCC2998 cells assessed as cell growth at 0.3 uM incubated for 48 hrs by sulforhodamine B assay relative to control; details: HCC 2998, 48 h, read-out: Activity
[8] = system: SK-MEL-5; experiment: Growth inhibition of human SK-MEL-5 cells assessed as cell growth at 30 uM incubated for 48 hrs by sulforhodamine B assay relative to control; details: SK-MEL-5, 48 h, read-out: Activity
[9] = system: COLO 205; experiment: Growth inhibition of human COLO205 cells assessed as cell growth at 0.03 uM incubated for 48 hrs by sulforhodamine B assay relative to control; details: COLO 205, 48 h, read-out: Activity
[10] = system: SNB-75; experiment: Growth inhibition of human SNB75 cells assessed as cell growth at 0.003 uM incubated for 48 hrs by sulforhodamine B assay relative to control; details: SNB-75, 48 h, read-out: Activity
[11] = system: IGROV-1; experiment: Growth inhibition of human IGROV1 cells assessed as cell growth at 0.03 uM incubated for 48 hrs by sulforhodamine B assay relative to control; details: IGROV-1, 48 h, read-out: Activity
[12] = system: COLO 205; experiment: Growth inhibition of human COLO205 cells assessed as cell growth at 0.003 uM incubated for 48 hrs by sulforhodamine B assay relative to control; details: COLO 205, 48 h, read-out: Activity
[13] = system: SR; experiment: Growth inhibition of human SR cells assessed as cell growth at 0.003 uM incubated for 48 hrs by sulforhodamine B assay relative to control; details: read-out: Activity
[14] = system: Hs-578T; experiment: Growth inhibition of human Hs 578T cells assessed as cell growth at 0.1 uM incubated for 48 hrs by sulforhodamine B assay relative to control; details: read-out: Activity
[15] = system: HCC 2998; experiment: Growth inhibition of human HCC2998 cells assessed as cell growth at 1 uM incubated for 48 hrs by sulforhodamine B assay relative to control; details: HCC 2998, 48 h, read-out: Activity
[16] = system: Malme-3M; experiment: Growth inhibition of human MALME-3M cells assessed as cell growth at 100 uM incubated for 48 hrs by sulforhodamine B assay relative to control; details: read-out: Activity
[17] = system: PC-3; experiment: Growth inhibition of human PC3 cells assessed as cell growth at 10 uM incubated for 48 hrs by sulforhodamine B assay relative to control; details: PC-3, 48 h, read-out: Activity
[18] = system: SK-MEL-28; experiment: Growth inhibition of human SK-MEL-28 cells assessed as cell growth at 0.01 uM incubated for 48 hrs by sulforhodamine B assay relative to control; details: SK-MEL-28, 48 h, read-out: Activity
[19] = system: SR; experiment: Growth inhibition of human SR cells assessed as cell growth at 10 uM incubated for 48 hrs by sulforhodamine B assay relative to control; details: read-out: Activity
[20] = system: HT-29; experiment: Growth inhibition of human HT-29 cells assessed as cell growth at 0.1 uM incubated for 48 hrs by sulforhodamine B assay relative to control; details: HT-29, 48 h, read-out: Activity
[21] = system: CCRF-CEM; experiment: Growth inhibition of human CCRF-CEM cells assessed as cell growth at 1 uM incubated for 48 hrs by sulforhodamine B assay relative to control; details: read-out: Activity
[22] = system: CAKI-1; experiment: Growth inhibition of human Caki1 cells assessed as cell growth at 10 uM incubated for 48 hrs by sulforhodamine B assay relative to control; details: CAKI-1, 48 h, read-out: Activity
[23] = system: EKVX; experiment: Growth inhibition of human EKVX cells assessed as cell growth at 0.01 uM incubated for 48 hrs by sulforhodamine B assay relative to control; details: read-out: Activity
[24] = system: MDA-MB-231; experiment: Growth inhibition of human MDA-MB-231 cells assessed as cell growth at 0.1 uM incubated for 48 hrs by sulforhodamine B assay relative to control; details: MDA-MB-231, 48 h, read-out: Activity
[25] = system: HOP-92; experiment: Growth inhibition of human HOP92 cells assessed as cell growth at 100 uM incubated for 48 hrs by sulforhodamine B assay relative to control; details: HOP-92, 48 h, read-out: Activity
[26] = system: RPMI-8226; experiment: Growth inhibition of human RPMI8226 cells assessed as cell growth at 1 uM incubated for 48 hrs by sulforhodamine B assay relative to control; details: RPMI-8226, 48 h, read-out: Activity
[27] = system: Hs-578T; experiment: Growth inhibition of human Hs 578T cells assessed as cell growth at 1 uM incubated for 48 hrs by sulforhodamine B assay relative to control; details: read-out: Activity
[28] = system: M14; experiment: Growth inhibition of human M14 cells assessed as cell growth at 0.01 uM incubated for 48 hrs by sulforhodamine B assay relative to control; details: M14, 48 h, read-out: Activity
[29] = system: IGROV-1; experiment: Growth inhibition of human IGROV1 cells assessed as cell growth at 100 uM incubated for 48 hrs by sulforhodamine B assay relative to control; details: IGROV-1, 48 h, read-out: Activity
[30] = system: Malme-3M; experiment: Growth inhibition of human MALME-3M cells assessed as cell growth at 0.01 uM incubated for 48 hrs by sulforhodamine B assay relative to control; details: read-out: Activity
[31] = system: T47D; experiment: Growth inhibition of human T47D cells assessed as cell growth at 0.01 uM incubated for 48 hrs by sulforhodamine B assay relative to control; details: read-out: Activity
[32] = system: A549; experiment: Growth inhibition of human A549/ATCC cells assessed as cell growth at 0.1 uM incubated for 48 hrs by sulforhodamine B assay relative to control; details: A549, 48 h, read-out: Activity
[33] = system: COLO 205; experiment: Growth inhibition of human COLO205 cells assessed as cell growth at 10 uM incubated for 48 hrs by sulforhodamine B assay relative to control; details: COLO 205, 48 h, read-out: Activity
[34] = system: SNB-75; experiment: Growth inhibition of human SNB75 cells assessed as cell growth at 0.1 uM incubated for 48 hrs by sulforhodamine B assay relative to control; details: SNB-75, 48 h, read-out: Activity
[35] = system: SF-268; experiment: Growth inhibition of human SF268 cells assessed as cell growth at 10 uM incubated for 48 hrs by sulforhodamine B assay relative to control; details: SF-268, 48 h, read-out: Activity
[36] = system: HOP-62; experiment: Growth inhibition of human HOP62 cells assessed as cell growth at 0.1 uM incubated for 48 hrs by sulforhodamine B assay relative to control; details: HOP-62, 48 h, read-out: Activity

Structure (SMILES)	growth at 0.03 µM [1]	growth at 30 µM [2]	growth at 3 µM [3]	growth at 0.003 µM [4]	growth at 30 µM [5]	growth at 3 µM [6]	growth at 0.3 µM [7]	growth at 30 µM [8]	growth at 0.03 µM [9]	growth at 0.003 µM [10]	growth at 0.03 µM [11]	growth at 0.003 µM [12]	growth at 0.003 µM [13]	growth at 0.1 µM [14]	growth at 1 µM [15]	growth at 100 µM [16]	growth at 10 µM [17]	growth at 0.01 µM [18]	growth at 10 µM [19]	growth at 0.1 µM [20]	other results
COc1cc2cc(Oc3ccc(NC(=O)Nc4ccc(Cl)c(C(F)(F)F)c4)cc3)c(C)nc2cc1OC	92%	-69%	7%	98%	-60%	12%	109%	-97%	94%	90%	107%	97%	99%	–	–	–	–	–	–	–	–
COc1cc2cc(Oc3ccc(NC(=O)Nc4ccc(Cl)c(Cl)c4)cc3)c(C)nc2cc1OC	–	–	–	–	–	–	–	–	–	–	–	–	–	99%	96%	-99%	-28%	101%	1%	110%	growth at 1 µM [21]: 78%; growth at 10 µM [22]: -18%; growth at 0.01 µM [23]: 94%; growth at 0.1 µM [24]: 92%; growth at 100 µM [25]: -100%; growth at 1 µM [26]: 69%; growth at 1 µM [27]: 113%; growth at 0.01 µM [28]: 84%; growth at 100 µM [29]: -15%; growth at 0.01 µM [30]: 102%; growth at 0.01 µM [31]: 100%; growth at 0.1 µM [32]: 94%; growth at 10 µM [33]: -25%; growth at 0.1 µM [34]: 75%; growth at 10 µM [35]: 44%; growth at 0.1 µM [36]: 104%
Cc1nc2cc(O)c(O)cc2cc1Oc1ccc(NC(=O)Nc2ccc(Cl)c(Cl)c2)cc1	99%	-25%	95%	99%	-20%	94%	97%	-47%	108%	80%	104%	107%	100%	–	–	–	–	–	–	–	–
COc1cc2cc(Oc3ccc(NC(=O)Nc4cc(C(F)(F)F)cc(C(F)(F)F)c4)cc3)c(C)nc2cc1OC	–	–	–	–	–	–	–	–	–	–	–	–	–	109%	79%	-74%	-41%	91%	-20%	97%	growth at 1 µM [21]: 39%; growth at 10 µM [22]: -26%; growth at 0.01 µM [23]: 89%; growth at 0.1 µM [24]: 98%; growth at 100 µM [25]: -58%; growth at 1 µM [26]: 23%; growth at 1 µM [27]: 101%; growth at 0.01 µM [28]: 92%; growth at 100 µM [29]: -63%; growth at 0.01 µM [30]: 87%; growth at 0.01 µM [31]: 86%; growth at 0.1 µM [32]: 99%; growth at 10 µM [33]: -74%; growth at 0.1 µM [34]: 74%; growth at 10 µM [35]: -61%; growth at 0.1 µM [36]: 94%

— ChEMBL document CHEMBL3994622, “Design and synthesis of new RAF kinase-inhibiting antiproliferative quinoline derivatives. Part 2: Diarylurea derivatives” (Eur J Med Chem, 2017)
